Patent publication US10870638B2, “Pyridazinone compound or its salt, and herbicide containing it” (ISHIHARA SANGYO KAISHA, LTD., priority 2016, dated 2020)

Tests used:
Type in all cases: in vivo
Settings in all cases: active ingredient amount 31 g/ha, 14th day after application
[1] = system: soybean (Glycine max Merr.); test: Test Example 1: foliar treatment, growth inhibition rate on 14th day
Procedure, shortened: (§1)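 Inhibition was rated visually 14 days after treatment on a 0–100% scale, where 100 is complete kill. Compounds, formulated as wettable powders or emulsifiable concentrates at set active-ingredient amounts, were diluted to 1,000 L/ha with 0.1 vol% spreader. The dilutions were sprayed post-emergence onto soybean (primary leaf), rice (0.2–2.7 leaf), wild oat (0.4–1.2) and green foxtail (0.5–3.2).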

[2] = system: wheat (Triticum aestivum L.); test: as above
Procedure, shortened: (§2)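 Using a small sprayer, formulated compound in water (0.1 vol % surfactant, 1,000 L/ha) was applied to seedlings grown from seed in upland soil. Fourteen days on, growth state was observed and expressed as percent inhibition from 0 to 100.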

[3] = system: barnyardgrass (Echinochloa crus-qalli L.); test: as above
Procedure, shortened: as §2

[4] = system: green foxtail (Setaria viridis L.); test: as above
Procedure, shortened: as §1

[5] = system: wild oat (Avena fatua L.); test: as above
Procedure, shortened: as §1

corn (Zea mays L.) [6] = test: as above
Procedure, shortened: as §2

rice (Oryza sativa L.) [7] = test: as above
Procedure, shortened: as §1

[8] = system: crabgrass (Digitaria sanquinalis L.); test: as above
Procedure, shortened: as §2

[9] = system: italian ryegrass (Lolium multiflorum Lam.); test: as above
Procedure, shortened: as §2

[10] = system: redroot pigweed (Amaranthus retroflexus L.); test: as above
Procedure, shortened: as §2

[11] = system: soybean (Glycine max Merr.); test: Test Example 2: soil application on the day after sowing, growth inhibition rate on 14th day
Procedure, shortened: (§3)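 Growth inhibition (%) judged by eye at day 14, scale 0 = as untreated to 100 = complete kill. Compounds formulated as wettable powders or emulsifiable concentrates, diluted in 1,000 L water per ha and sprayed onto pot soil one day post-sowing at set active-ingredient rates.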

[12] = system: wheat (Triticum aestivum L.); test: as above
Procedure, shortened: as §3

[13] = system: barnyardgrass (Echinochloa crus-qalli L.); test: as above
Procedure, shortened: as §3

[14] = system: green foxtail (Setaria viridis L.); test: as above
Procedure, shortened: as §3

corn (Zea mays L.) [15] = test: as above
Procedure, shortened: as §3

rice (Oryza sativa L.) [16] = test: as above
Procedure, shortened: as §3

[17] = system: velvetleaf (Abutilon theophrasti MEDIC.); test: as above
Procedure, shortened: as §3

[18] = system: prickly sida (Sida spinosa L.); test: as above
Procedure, shortened: as §3

[19] = system: crabgrass (Digitaris sanquinalis L.); test: as above
Procedure, shortened: as §3

[20] = system: redroot pigweed (Amaranthus retroflexus L.); test: as above
Procedure, shortened: as §3

[21] = visual, 0 = non-treated, 100 = complete kill

| SMILES | Growth inhibition rate (%) Soybean [1] | Growth inhibition rate (%) Wheat [2] | Growth inhibition rate (%) Barnyardgrass [3] | Growth inhibition rate (%) Green foxtail [4] | Growth inhibition rate (%) Wild oat [5] | Growth inhibition rate (%) Corn (corn (Zea mays L.) [6]) | Growth inhibition rate (%) Rice (rice (Oryza sativa L.) [7]) | Growth inhibition rate (%) Crabgrass [8] | Growth inhibition rate (%) Italian ryegrass [9] | Growth inhibition rate (%) Redroot pigweed [10] | Growth inhibition rate (%) Soybean [11] | Growth inhibition rate (%) Wheat [12] | Growth inhibition rate (%) Barnyardgrass [13] | Growth inhibition rate (%) Green foxtail [14] | Growth inhibition rate (%) Corn (corn (Zea mays L.) [15]) | Growth inhibition rate (%) Rice (rice (Oryza sativa L.) [16]) | Growth inhibition rate (%) Velvetleaf [17] | Growth inhibition rate (%) Prickly sida [18] | Growth inhibition rate (%) Crabgrass [19] | Growth inhibition rate (%) Redroot pigweed [20] | other results |
| --- | --- | --- | --- | --- | --- | --- | --- | --- | --- | --- | --- | --- | --- | --- | --- | --- | --- | --- | --- | --- | --- |
| Cc1ccc(Oc2cnc(C(F)(F)F)cn2)cc1-c1c(O)c(C)nn(C)c1=O [Compound 2-194] | 10% | 0% | 85% | 90% | 10% | 60% | 0% | 90% | 35% | 0% | 0% | 0% | 95% | 99% | 40% | 30% | 0% | 0% | 83% | 0% |  |
| CC(=O)Oc1c(C)nn(C)c(=O)c1-c1cc(Oc2cnc(C(F)(F)F)cn2)ccc1C [Compound 2-195] | 30% | 35% | 93% | 93% | 90% | 83% | 40% | 90% | 85% | 0% | 0% | 0% | 98% | 99% | 0% | 20% | 0% | 0% | 98% | 0% |  |
| CC(=O)Oc1c(C)nn(C)c(=O)c1-c1cc(Oc2cnc3cc(Cl)ccc3n2)ccc1C [Compound 3-33] | 30% | 100% | 100% | 100% | 100% | 10% | 93% | 99% | 98% | 0% | 0% | 40% | 100% | 100% | 20% | 60% | 0% | 0% | 99% | 0% |  |
| CCc1nn(C)c(=O)c(-c2cc(Oc3cnc4cc(Cl)ccc4n3)ccc2C)c1O [Compound 3-34] | 30% | 90% | 100% | 100% | 95% | 15% | 90% | 95% | 99% | 0% | 0% | 0% | 99% | 98% | 20% | 20% | 0% | 0% | 65% | 0% |  |
| COCOc1c(C)nn(C)c(=O)c1-c1cc(Oc2cnc3cc(Cl)ccc3n2)ccc1C [Compound 3-40] | 10% | 98% | 99% | 99% | 98% | 25% | 85% | 99% | 98% | 0% | 0% | 0% | 90% | 40% | 10% | 10% | 0% | 0% | 10% | 0% |  |
| COCC(=O)Oc1c(C)nn(C)c(=O)c1-c1cc(Oc2cnc3cc(Cl)ccc3n2)ccc1C [Compound 3-45] |  |  |  |  |  |  |  |  |  |  | 0% | 0% | 95% | 85% | 0% | 25% | 0% | 0% | 20% | 0% | Growth inhibition rate (%) Soybean [1, 21]: 25%; Growth inhibition rate (%) Wheat [2, 21]: 98%; Growth inhibition rate (%) Barnyardgrass [3, 21]: 100%; Growth inhibition rate (%) Green foxtail [4, 21]: 99%; Growth inhibition rate (%) Wild oat [5, 21]: 100%; Growth inhibition rate (%) Corn (corn (Zea mays L.) [6]; [21]): 45%; Growth inhibition rate (%) Rice (rice (Oryza sativa L.) [7]; [21]): 98%; Growth inhibition rate (%) Crabgrass [8, 21]: 99%; Growth inhibition rate (%) Italian ryegrass [9, 21]: 100%; Growth inhibition rate (%) Redroot pigweed [10, 21]: 0% |
| Cc1ccc(Oc2cnc3cc(Cl)ccc3n2)cc1-c1c(OC(=O)COc2ccccc2)c(C)nn(C)c1=O [Compound 3-48] |  |  |  |  |  |  |  |  |  |  | 0% | 20% | 98% | 100% | 0% | 0% | 0% | 0% | 60% | 0% | Growth inhibition rate (%) Soybean [1, 21]: 10%; Growth inhibition rate (%) Wheat [2, 21]: 90%; Growth inhibition rate (%) Barnyardgrass [3, 21]: 100%; Growth inhibition rate (%) Green foxtail [4, 21]: 100%; Growth inhibition rate (%) Wild oat [5, 21]: 75%; Growth inhibition rate (%) Corn (corn (Zea mays L.) [6]; [21]): 25%; Growth inhibition rate (%) Rice (rice (Oryza sativa L.) [7]; [21]): 0%; Growth inhibition rate (%) Crabgrass [8, 21]: 98%; Growth inhibition rate (%) Italian ryegrass [9, 21]: 95%; Growth inhibition rate (%) Redroot pigweed [10, 21]: 0% |
| C=CC(=O)Oc1c(C)nn(C)c(=O)c1-c1cc(Oc2cnc3cc(Cl)ccc3n2)ccc1C [Compound 3-49] |  |  |  |  |  |  |  |  |  |  | 0% | 10% | 95% | 85% | 0% | 0% | 0% | 0% | 20% | 0% | Growth inhibition rate (%) Soybean [1, 21]: 20%; Growth inhibition rate (%) Wheat [2, 21]: 99%; Growth inhibition rate (%) Barnyardgrass [3, 21]: 99%; Growth inhibition rate (%) Green foxtail [4, 21]: 100%; Growth inhibition rate (%) Wild oat [5, 21]: 98%; Growth inhibition rate (%) Corn (corn (Zea mays L.) [6]; [21]): 45%; Growth inhibition rate (%) Rice (rice (Oryza sativa L.) [7]; [21]): 50%; Growth inhibition rate (%) Crabgrass [8, 21]: 100%; Growth inhibition rate (%) Italian ryegrass [9, 21]: 100%; Growth inhibition rate (%) Redroot pigweed [10, 21]: 0% |
| CSCCC(=O)Oc1c(C)nn(C)c(=O)c1-c1cc(Oc2cnc3cc(Cl)ccc3n2)ccc1C [Compound 3-50] |  |  |  |  |  |  |  |  |  |  | 0% | 0% | 99% | 98% | 0% | 0% | 0% | 0% | 80% | 0% | Growth inhibition rate (%) Soybean [1, 21]: 10%; Growth inhibition rate (%) Wheat [2, 21]: 99%; Growth inhibition rate (%) Barnyardgrass [3, 21]: 100%; Growth inhibition rate (%) Green foxtail [4, 21]: 100%; Growth inhibition rate (%) Wild oat [5, 21]: 98%; Growth inhibition rate (%) Corn (corn (Zea mays L.) [6]; [21]): 15%; Growth inhibition rate (%) Rice (rice (Oryza sativa L.) [7]; [21]): 60%; Growth inhibition rate (%) Crabgrass [8, 21]: 98%; Growth inhibition rate (%) Italian ryegrass [9, 21]: 93%; Growth inhibition rate (%) Redroot pigweed [10, 21]: 0% |
